The source of these data is patent US12516087B2, “Methods and compositions comprising therapeutic gamma peptide nucleic acid-based molecules” (UNIVERSITY OF IOWA RESEARCH FOUNDATION, priority 2022, dated 2026).

No end group written: not given here.

The test relates to endothelial cells (HUVECs). Description: Binding of TAMRA-labelled γPNA to cells (fluorescence intensity). Format: cell-based, human. Conditions: 30 minutes incubation, fluorescence intensity normalized to protein. The protocol: FIGS. 11A and 11B. […] The cells were incubated with TAMRA-e-γP-122-I or TAMRA-γP-122-I for 30 minutes, washed three times, lysed, and the fluorescence intensity was measured and normalized to protein. RFI: Rhodamine (5-TAMRA) fluorescence intensity (561/600).
The inventors generated an endothelial cell targeting version of the disclosed γ-PNA inhibitors of miR-122 by fusing the peptide VHPK (SEQ ID NO: 4) to the γ-PNAs of the instant disclosure (“VHPK-γ-PNA fusion”). VHPK binds to vascular cell adhesion molecule 1 (VCAM1) which is highly expressed on the surface of endothelial cells.

Take “TAMRA-e-γP-122-I: endothelial cell targeting γ-PNA miR-122 inhibitor fused to peptide VHPK (SEQ ID NO: 4), TAMRA-labelled (VHPKQHRQQSKQC; also: fused to γ-PNA miR-122 inhibitor, TAMRA-labelled, place not given here)”: the “binding to endothelial cells (HUVECs) versus untagged γ-PNA” value is “Increased binding” and the “binding to endothelial cells versus HEK-293 cells” value is “increased binding to endothelial cells as compared to human embryonic kidney (HEK-293) cells”. Moreover, the “binding to endothelial cells (HUVECs) versus untagged γ-PNA” value (listed as VHPK-γ-PNA fusion) is given as “increased binding”.
